These results are taken from PubChem BioAssay AID1259407 (Chemical Carcinogenesis Research Information System (CCRIS), 2018).

For the data set, the system named is CCRIS mutagenicity, Ames/micronucleus/aberration tests. The data set can be described thus: CCRIS mutagenicity studies.
Where [1] appears, read: Test System: AMES SALMONELLA TYPHIMURIUM, Strain/Indicator: TA98, Metabolic Activation: HAMSTER, LIVER, S-9, AROCLOR 1254 (10%), Method: PREINCUBATION
The mark [2] stands for this setting: Test System: AMES SALMONELLA TYPHIMURIUM, Strain/Indicator: TA98, Metabolic Activation: NONE, Method: PREINCUBATION
[3] abbreviates: Test System: AMES SALMONELLA TYPHIMURIUM, Strain/Indicator: TA98, Metabolic Activation: RAT, LIVER, S-9, AROCLOR 1254 (10%), Method: PREINCUBATION
[4] abbreviates: Test System: AMES SALMONELLA TYPHIMURIUM, Strain/Indicator: TA100, Metabolic Activation: HAMSTER, LIVER, S-9, AROCLOR 1254 (10%), Method: PREINCUBATION
Setting [5] is: Test System: AMES SALMONELLA TYPHIMURIUM, Strain/Indicator: TA100, Metabolic Activation: NONE, Method: PREINCUBATION
Where [6] appears, read: Test System: AMES SALMONELLA TYPHIMURIUM, Strain/Indicator: TA100, Metabolic Activation: RAT, LIVER, S-9, AROCLOR 1254 (10%), Method: PREINCUBATION
The mark [7] stands for this setting: Test System: AMES SALMONELLA TYPHIMURIUM, Strain/Indicator: TA1535, Metabolic Activation: HAMSTER, LIVER, S-9, AROCLOR 1254 (10%), Method: PREINCUBATION
Where [8] appears, read: Test System: AMES SALMONELLA TYPHIMURIUM, Strain/Indicator: TA1535, Metabolic Activation: NONE, Method: PREINCUBATION
Setting [9] is: Test System: AMES SALMONELLA TYPHIMURIUM, Strain/Indicator: TA1535, Metabolic Activation: RAT, LIVER, S-9, AROCLOR 1254 (10%), Method: PREINCUBATION
Setting [10] is: Test System: AMES SALMONELLA TYPHIMURIUM, Strain/Indicator: TA1537, Metabolic Activation: HAMSTER, LIVER, S-9, AROCLOR 1254 (10%), Method: PREINCUBATION
[11] abbreviates: Test System: AMES SALMONELLA TYPHIMURIUM, Strain/Indicator: TA1537, Metabolic Activation: NONE, Method: PREINCUBATION
Where [12] appears, read: Test System: AMES SALMONELLA TYPHIMURIUM, Strain/Indicator: TA1537, Metabolic Activation: RAT, LIVER, S-9, AROCLOR 1254 (10%), Method: PREINCUBATION
The mark [13] stands for this setting: Test System: AMES SALMONELLA TYPHIMURIUM, Strain/Indicator: TA100, Metabolic Activation: NONE, Method: STANDARD PLATE.
The mark [14] stands for this setting: Test System: AMES SALMONELLA TYPHIMURIUM, Strain/Indicator: TA97, Metabolic Activation: NONE, Method: STANDARD PLATE.
Where [15] appears, read: Test System: AMES SALMONELLA TYPHIMURIUM, Strain/Indicator: TA98, Metabolic Activation: NONE, Method: STANDARD PLATE.
[16] abbreviates: Test System: AMES SALMONELLA TYPHIMURIUM, Strain/Indicator: TA98, Metabolic Activation: RAT, LIVER, S-9, AROCLOR 1254, Method: STANDARD PLATE.
Setting [17] is: Test System: AMES SALMONELLA TYPHIMURIUM, Strain/Indicator: TA100, Metabolic Activation: RAT, LIVER, S-9, AROCLOR 1254, Method: STANDARD PLATE.
The mark [18] stands for this setting: Test System: AMES SALMONELLA TYPHIMURIUM, Strain/Indicator: TA102, Metabolic Activation: NONE, Method: STANDARD PLATE.
The mark [19] stands for this setting: Test System: AMES SALMONELLA TYPHIMURIUM, Strain/Indicator: TA102, Metabolic Activation: RAT, LIVER, S-9, AROCLOR 1254, Method: STANDARD PLATE.

The structures appear in SMILES notation. Calls of active or inactive are those of the source. No rule for the calls is given here.

`CCCNCCC`: the mutagenic call was “inactive; negative” under setting [1]; “inactive; negative” under setting [2]; “inactive; negative” under setting [3]; “inactive; negative” under setting [4]; “inactive; negative” under setting [5]; “inactive; negative” under setting [6]. The mutagenic call is “inactive; negative” under setting [7]; “inactive; negative” under setting [8]; “inactive; negative” under setting [9]; “inactive; negative” under setting [10]; “inactive; negative” under setting [11]; “inactive; negative” under setting [12].

Turning to `CCOS(=O)(=O)OCC`, the mutagenic call is “active; positive (structural changes)” (End Point: IN VITRO CHROMOSOMAL ABERRATIONS, Test System: CHL CELLS, Metabolic Activation: RAT, LIVER, S-9, SODIUM PHENOBARBITAL AND 5,6-BENZOFLAVONE); “active; positive (p<0.01)” (End Point: In vitro micronucleus, Test System: Chinese Hamster Ovary (CHO-WBL) cells, Metabolic Activation: None); “active; positive” under setting [2]; “active; positive” (Test System: AMES SALMONELLA TYPHIMURIUM, Strain/Indicator: TA98, Metabolic Activation: RAT LIVER S-9, PHENOBARBITAL AND BETA-NAPHTHOFLAVONE, Method: PREINCUBATION); “active; positive” under setting [5]; “active; positive” under setting [13]. In addition, the mutagenic call is “active; positive” (Test System: AMES SALMONELLA TYPHIMURIUM, Strain/Indicator: TA100, Metabolic Activation: RAT LIVER S-9, PHENOBARBITAL AND BETA-NAPHTHOFLAVONE, Method: PREINCUBATION); “active; positive” under setting [8]; “active; positive” (Test System: AMES SALMONELLA TYPHIMURIUM, Strain/Indicator: TA1535, Metabolic Activation: NONE, Method: STANDARD PLATE); “active; positive” (Test System: AMES SALMONELLA TYPHIMURIUM, Strain/Indicator: TA1535, Metabolic Activation: RAT LIVER S-9, PHENOBARBITAL AND BETA-NAPHTHOFLAVONE, Method: PREINCUBATION); “active; positive” under setting [11]; “active; positive” (Test System: AMES SALMONELLA TYPHIMURIUM, Strain/Indicator: TA1537, Metabolic Activation: RAT LIVER S-9, PHENOBARBITAL AND BETA-NAPHTHOFLAVONE, Method: PREINCUBATION). The mutagenic call by setting is: (Test System: CHINESE HAMSTER OVARY, Strain/Indicator: CHO-K1-BH4 (HGPRT), Metabolic Activation: NONE, Method: STANDARD PLATE) “active; positive”; (Test System: CHINESE HAMSTER V-79, Strain/Indicator: V-79/6-THIOGUANINE, Metabolic Activation: NONE, Method: FLASK ASSAY) “active; positive”; (Test System: E.COLI, Strain/Indicator: WP2UVRA, Metabolic Activation: NONE, Method: PREINCUBATION) “active; positive”; (Test System: E.COLI, Strain/Indicator: WP2UVRA, Metabolic Activation: RAT LIVER S-9, PHENOBARBITAL AND BETA-NAPHTHOFLAVONE, Method: PREINCUBATION) “active; positive”.

As to `Clc1cccc(Cl)n1`, the mutagenic call by setting is: under setting [14], “inactive; negative”; under setting [15], “inactive; negative”; under setting [16], “inactive; negative”; under setting [13], “inactive; negative”; under setting [17], “inactive; negative”; under setting [18], “inactive; negative”. The mutagenic call under setting [19] is “inactive; negative”.

In the case of `O=C1NC(=O)C(CCl)=C1Cl`, the mutagenic call under setting [13] was “active; positive”.

As for `NCCc1cnc[nH]1`, the mutagenic call is “inactive; negative” under setting [14]; “inactive; negative” (Test System: AMES SALMONELLA TYPHIMURIUM, Strain/Indicator: TA97, Metabolic Activation: RAT, LIVER, S-9, AROCLOR 1254, Method: STANDARD PLATE); “inactive; negative” under setting [15]; “inactive; negative” under setting [16]; “inactive; negative” under setting [13]; “inactive; negative” under setting [17]. Besides, the mutagenic call is, setting by setting: under setting [18], “inactive; negative”; under setting [19], “inactive; negative”; (Test System: UDS RAT HEPATOCYTES, Strain/Indicator: THY INCORP, Metabolic Activation: NONE, Method: AUTORADIOGRAPHY) “inactive; negative”.

With `O=C1OC(=O)c2c(Cl)c(Cl)c(Cl)c(Cl)c21`, the mutagenic call by setting is: (End Point: IN VITRO CHROMOSOMAL ABERRATIONS, Test System: CHINESE HAMSTER OVARY CELLS, Metabolic Activation: NONE) “inactive; negative”; (End Point: IN VITRO CHROMOSOMAL ABERRATIONS, Test System: CHINESE HAMSTER OVARY CELLS, Metabolic Activation: RAT, LIVER, S-9, AROCLOR 1254) “inactive; negative”; under setting [1], “inactive; negative”; under setting [2], “inactive; negative”; under setting [3], “inactive; negative”; under setting [4], “inactive; negative”. For the same compound, the mutagenic call by setting is: under setting [5], “inactive; negative”; under setting [6], “inactive; negative”; under setting [7], “inactive; negative”; under setting [8], “inactive; negative”; under setting [9], “inactive; negative”; under setting [10], “inactive; negative”. In addition, the mutagenic call under setting [11] was “inactive; negative” and the mutagenic call under setting [12] was “inactive; negative”.

Take `Cc1ccc(NC(=O)c2csc([N+](=O)[O-])c2)cc1`: the mutagenic call was “active; positive” under setting [15] and “active; positive” under setting [13].

For `COP(=S)(OC)SCn1nnc2ccccc2c1=O`, the mutagenic call (End Point: In vitro Chromosomal aberrations, Test System: Human lymphocytes, Metabolic Activation: None) was “inactive; negative; lymphocytes from 1 male and 1 female; azinphos-methyl purity 92.9%”; the mutagenic call (End Point: In vitro Chromosomal aberrations, Test System: Human lymphocytes, Metabolic Activation: Rat, liver, S-9) is “active; positive (structural and ploidy); lymphocytes from 1 male and 1 female; azinphos”; the mutagenic call under setting [1] was “inactive; negative”; the mutagenic call under setting [2] is “inactive; negative”; the mutagenic call under setting [3] is “active; positive”; the mutagenic call under setting [4] is “inactive; negative”. Also, the mutagenic call runs as follows: under setting [5], “inactive; negative”; under setting [6], “inactive; negative”; under setting [7], “inactive; negative”; under setting [8], “inactive; negative”; under setting [9], “inactive; negative”; under setting [10], “inactive; negative”. Moreover, the mutagenic call was “inactive; negative” under setting [11] and “inactive; negative” under setting [12].
